Data reported in US8211935B2, “Heterocyclic derivatives for modulation of calcium channels” (Vertex Pharmaceuticals Incorporated, priority 2004, dated 2012).

What follows are compounds tested against T1, CaV2.2 (Homo sapiens, UniProt Q00975) (assay: VIPR optical membrane potential assay with electrical stimulation). Settings: not given.
T1 construct: expressed in transfected cells; host or cells: HEK293
T1 sequence (Q00975 whole entry): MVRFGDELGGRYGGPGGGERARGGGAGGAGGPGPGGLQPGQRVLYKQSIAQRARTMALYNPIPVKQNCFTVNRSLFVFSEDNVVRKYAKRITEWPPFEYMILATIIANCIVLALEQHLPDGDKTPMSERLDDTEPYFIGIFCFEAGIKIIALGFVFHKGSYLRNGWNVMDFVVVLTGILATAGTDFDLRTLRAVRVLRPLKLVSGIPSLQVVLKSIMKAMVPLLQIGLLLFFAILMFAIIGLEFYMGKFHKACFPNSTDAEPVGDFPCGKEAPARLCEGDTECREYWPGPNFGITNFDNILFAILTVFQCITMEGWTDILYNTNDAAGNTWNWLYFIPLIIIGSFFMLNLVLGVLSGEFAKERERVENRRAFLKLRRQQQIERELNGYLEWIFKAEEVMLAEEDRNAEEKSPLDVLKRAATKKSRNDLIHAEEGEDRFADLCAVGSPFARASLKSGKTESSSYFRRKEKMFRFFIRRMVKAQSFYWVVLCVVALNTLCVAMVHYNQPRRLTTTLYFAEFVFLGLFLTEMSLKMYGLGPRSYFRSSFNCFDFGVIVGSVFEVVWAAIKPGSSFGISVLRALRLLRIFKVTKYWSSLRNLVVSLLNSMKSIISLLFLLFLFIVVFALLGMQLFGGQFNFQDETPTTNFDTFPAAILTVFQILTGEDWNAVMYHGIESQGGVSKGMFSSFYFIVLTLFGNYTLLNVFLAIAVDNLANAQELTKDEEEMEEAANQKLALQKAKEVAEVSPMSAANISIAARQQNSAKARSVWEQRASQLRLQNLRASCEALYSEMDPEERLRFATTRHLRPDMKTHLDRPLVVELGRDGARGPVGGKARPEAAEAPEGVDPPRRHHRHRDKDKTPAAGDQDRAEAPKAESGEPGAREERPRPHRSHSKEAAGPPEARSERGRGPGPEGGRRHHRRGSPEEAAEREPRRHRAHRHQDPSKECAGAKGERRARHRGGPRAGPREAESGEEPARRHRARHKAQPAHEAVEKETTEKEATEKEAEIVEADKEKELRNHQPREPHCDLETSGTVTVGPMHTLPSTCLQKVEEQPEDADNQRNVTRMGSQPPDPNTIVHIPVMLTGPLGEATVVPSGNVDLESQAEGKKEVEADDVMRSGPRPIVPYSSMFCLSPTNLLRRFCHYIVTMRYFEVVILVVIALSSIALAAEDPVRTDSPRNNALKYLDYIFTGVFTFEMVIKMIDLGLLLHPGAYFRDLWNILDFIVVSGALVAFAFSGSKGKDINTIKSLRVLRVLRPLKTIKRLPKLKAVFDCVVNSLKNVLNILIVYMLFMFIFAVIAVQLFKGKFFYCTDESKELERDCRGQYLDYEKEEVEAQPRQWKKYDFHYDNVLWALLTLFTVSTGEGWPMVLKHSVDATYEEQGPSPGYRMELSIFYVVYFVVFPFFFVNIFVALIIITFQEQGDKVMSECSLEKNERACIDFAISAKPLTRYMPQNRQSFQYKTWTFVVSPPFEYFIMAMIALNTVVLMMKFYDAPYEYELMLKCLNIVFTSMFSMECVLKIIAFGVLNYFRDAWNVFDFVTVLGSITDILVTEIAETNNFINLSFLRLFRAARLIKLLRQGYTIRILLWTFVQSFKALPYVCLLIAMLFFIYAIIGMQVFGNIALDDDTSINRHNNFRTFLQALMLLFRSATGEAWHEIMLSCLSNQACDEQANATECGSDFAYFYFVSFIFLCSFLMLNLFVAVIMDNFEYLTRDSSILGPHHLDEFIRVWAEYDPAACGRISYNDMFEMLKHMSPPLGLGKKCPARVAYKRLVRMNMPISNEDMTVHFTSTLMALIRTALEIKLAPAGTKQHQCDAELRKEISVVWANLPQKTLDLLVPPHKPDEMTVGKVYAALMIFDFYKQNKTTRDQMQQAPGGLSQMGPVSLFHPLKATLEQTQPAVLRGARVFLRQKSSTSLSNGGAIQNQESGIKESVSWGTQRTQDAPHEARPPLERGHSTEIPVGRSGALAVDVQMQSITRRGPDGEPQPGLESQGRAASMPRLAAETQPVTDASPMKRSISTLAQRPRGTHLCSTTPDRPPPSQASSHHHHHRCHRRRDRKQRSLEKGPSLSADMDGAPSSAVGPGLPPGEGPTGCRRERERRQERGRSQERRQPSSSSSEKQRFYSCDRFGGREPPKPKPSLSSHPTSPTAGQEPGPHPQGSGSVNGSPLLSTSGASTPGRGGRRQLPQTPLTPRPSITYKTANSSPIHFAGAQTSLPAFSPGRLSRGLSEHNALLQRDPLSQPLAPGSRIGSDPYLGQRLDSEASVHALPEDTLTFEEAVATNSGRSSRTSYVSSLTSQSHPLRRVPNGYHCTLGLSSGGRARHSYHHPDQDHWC
T1 sequence (P54284 whole entry partner): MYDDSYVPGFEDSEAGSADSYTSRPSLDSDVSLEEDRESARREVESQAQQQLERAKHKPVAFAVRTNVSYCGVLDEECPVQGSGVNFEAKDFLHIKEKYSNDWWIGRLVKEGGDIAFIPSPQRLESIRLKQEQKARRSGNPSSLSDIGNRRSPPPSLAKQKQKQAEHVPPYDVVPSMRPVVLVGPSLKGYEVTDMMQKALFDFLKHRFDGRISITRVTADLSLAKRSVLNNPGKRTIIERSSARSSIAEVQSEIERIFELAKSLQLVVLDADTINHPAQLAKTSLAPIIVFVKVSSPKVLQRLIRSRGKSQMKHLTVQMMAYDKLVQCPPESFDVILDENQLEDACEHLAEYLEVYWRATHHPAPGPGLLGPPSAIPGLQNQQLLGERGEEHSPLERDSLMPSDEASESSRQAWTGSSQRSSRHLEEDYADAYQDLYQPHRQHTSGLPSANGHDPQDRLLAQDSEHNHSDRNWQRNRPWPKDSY
T1 sequence (P54289 25-946 partner limits assumed): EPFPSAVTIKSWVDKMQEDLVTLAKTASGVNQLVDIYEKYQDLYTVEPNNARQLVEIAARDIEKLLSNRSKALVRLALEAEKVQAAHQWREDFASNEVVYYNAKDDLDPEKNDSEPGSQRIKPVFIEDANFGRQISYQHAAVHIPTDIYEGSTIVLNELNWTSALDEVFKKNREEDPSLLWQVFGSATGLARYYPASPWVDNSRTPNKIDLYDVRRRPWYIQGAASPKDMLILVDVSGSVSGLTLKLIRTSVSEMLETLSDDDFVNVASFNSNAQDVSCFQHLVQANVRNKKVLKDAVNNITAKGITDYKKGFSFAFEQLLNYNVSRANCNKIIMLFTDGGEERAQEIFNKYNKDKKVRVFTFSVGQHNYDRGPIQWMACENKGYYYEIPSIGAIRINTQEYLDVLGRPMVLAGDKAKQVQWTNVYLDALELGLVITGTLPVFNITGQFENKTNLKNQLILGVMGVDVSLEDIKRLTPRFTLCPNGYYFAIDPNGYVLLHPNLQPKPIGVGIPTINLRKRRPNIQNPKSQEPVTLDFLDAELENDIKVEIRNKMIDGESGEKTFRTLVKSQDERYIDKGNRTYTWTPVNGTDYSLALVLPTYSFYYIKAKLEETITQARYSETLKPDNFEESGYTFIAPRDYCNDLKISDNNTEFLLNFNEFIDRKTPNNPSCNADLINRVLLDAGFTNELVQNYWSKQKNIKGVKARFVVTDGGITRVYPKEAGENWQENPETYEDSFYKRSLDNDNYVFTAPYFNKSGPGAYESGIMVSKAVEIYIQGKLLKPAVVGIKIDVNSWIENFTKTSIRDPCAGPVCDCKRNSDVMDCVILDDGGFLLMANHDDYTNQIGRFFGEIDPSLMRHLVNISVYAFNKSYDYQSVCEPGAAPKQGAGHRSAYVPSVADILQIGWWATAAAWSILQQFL
T1 sequence (P54289 947-1103 partner limits assumed): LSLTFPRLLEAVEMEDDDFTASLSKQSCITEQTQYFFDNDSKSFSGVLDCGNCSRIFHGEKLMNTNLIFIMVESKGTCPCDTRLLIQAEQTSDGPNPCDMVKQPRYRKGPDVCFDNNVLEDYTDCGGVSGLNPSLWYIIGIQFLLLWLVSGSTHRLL
Type: cell-based
Procedure, shortened: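 HEK293 cells stably expressing CaV2.2, stained with CC2-DMPE (10 μM final) and oxonol voltage-sensitive dyes, compound added with BaCl2. Membrane potential response evoked by 3-5 s electrical stimulation. Read as background-subtracted 460/580 nm emission ratio, response R=Rf/Ri, normalized to mibefradil positive and no-drug negative controls.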
`CC1CCN(S(=O)(=O)c2ccc3[nH]c(C(=O)N4CCC5(CC4)OCCO5)cc3c2)CC1` [compound 54] gave an IC50 of 5 to 20 µM.

Same assay, conditions: Table 3, biological assay data; read-out: IC50
Work on `Cc1c(C(=O)N2CCCC2)oc2ccc(S(=O)(=O)N3CCCCCC3)cc12` [compound 402] yielded an IC50 of under 20 µM. Work on `Cc1c(C(=O)NC2CC2)oc2ccc(S(=O)(=O)Nc3ccccc3)cc12` [compound 224] yielded an IC50 of 5 to 20 µM. Compound `Cc1c(C(=O)NCCc2ccccc2)oc2ccc(S(=O)(=O)N3CCC4(CC3)OCCO4)cc12` [compound 136] has an IC50 of 5 to 20 µM. In the case of `O=C(c1cc2cc(S(=O)(=O)N3CCCCCC3)ccc2[nH]1)N1CCCCC1` [compound 354], the IC50 is reported as 5 to 20 µM. Compound `COc1ccc(S(=O)(=O)n2c(C(=O)N3CCCCC3)cc3cc(S(=O)(=O)N4CC(C)CC(C)C4)ccc32)cc1` (centres unmarked) [compound 292] has an IC50 of under 5 µM. With `O=C(c1cc2cc(S(=O)(=O)N3CCCCCC3)ccc2o1)N1CCCC1` [compound 222] the IC50 was 5 to 20 µM. `Cc1c(C(=O)NC2CCCC2)[nH]c2ccc(S(=O)(=O)N3CC(C)CC(C)C3)cc12` (centres unmarked) [compound 390] showed an IC50 of under 5 µM. In the case of `Cc1c(C(=O)NC2CCCC2)oc2ccc(S(=O)(=O)N3CCCCCC3)cc12` [compound 294], the IC50 is reported as under 5 µM. For `Cc1c(C(=O)N2CCN(C)CC2)[nH]c2ccc(S(=O)(=O)N3CCCCCC3)cc12` [compound 3], the IC50 was under 20 µM. `Cc1c(C(=O)N(C(C)C)C(C)C)oc2ccc(S(=O)(=O)N3CCCCCC3)cc12` [compound 159] showed an IC50 of 5 to 20 µM. `CC1CC(C)CN(S(=O)(=O)c2ccc3[nH]c(C(=O)NCc4ccccc4)cc3c2)C1` (centres unmarked) [compound 357] gave an IC50 of under 5 µM. For `CCN(CC)S(=O)(=O)c1ccc2oc(C(=O)N3CCCCC3)c(C)c2c1` [compound 367], the IC50 was under 20 µM. For `Cc1c(C(=O)NC(C)C)oc2ccc(S(=O)(=O)N3CCCC(F)(F)C3)cc12` [compound 264], the IC50 was under 20 µM. `Cc1c(C(=O)NCCC2CCOCC2)[nH]c2ccc(S(=O)(=O)N3CCC(C)CC3)cc12` [compound 27] was tested, and the IC50 was 5 to 20 µM. Compound `CC1CCN(S(=O)(=O)c2ccc3oc(C(=O)N4CCCCC4C)cc3c2)CC1` (centres unmarked) [compound 208] has an IC50 of under 5 µM. In the case of `Cc1c(C(=O)NC2CCCCC2)oc2ccc(S(=O)(=O)N3CCCC(C)C3)cc12` (centres unmarked) [compound 9], the IC50 is reported as under 5 µM. For `CC1CCN(S(=O)(=O)c2ccc3[nH]c(C(=O)N(C(C)C)C(C)C)cc3c2)CC1` [compound 140], the IC50 was under 5 µM. With `CC(C)N(C(=O)c1cc2cc(S(=O)(=O)N3CCCCCC3)ccc2[nH]1)C(C)C` [compound 52] the IC50 was 5 to 20 µM. With `O=C(NC1CCCCC1)c1cc2cc(S(=O)(=O)N3CCCCCC3)ccc2o1` [compound 427] the IC50 was under 5 µM. In the case of `Cc1c(C(=O)NCC2CCCO2)[nH]c2ccc(S(=O)(=O)N3CCCCCC3)cc12` (centres unmarked) [compound 68], the IC50 is reported as 5 to 20 µM. `Cc1c(C(=O)NC(C)c2ccccc2)oc2ccc(S(=O)(=O)N3CCCC3)cc12` (centres unmarked) [compound 28] was tested, and the IC50 was under 20 µM. With `Cc1c(C(=O)NC2CCCCC2)[nH]c2ccc(S(=O)(=O)N3CC(C)CC(C)C3)cc12` (centres unmarked) [compound 331] the IC50 was under 5 µM. Work on `O=C(NCC1CCCO1)c1cc2cc(S(=O)(=O)N3CCCCCC3)ccc2[nH]1` (centres unmarked) [compound 386] yielded an IC50 of under 5 µM. `Cc1c(C(=O)NC2CCCCC2C)oc2ccc(S(=O)(=O)N3CCOCC3)cc12` (centres unmarked) [compound 123] showed an IC50 of 5 to 20 µM. In the case of `Cc1c(C(=O)NC2CC2)oc2ccc(S(=O)(=O)Nc3ncccn3)cc12` [compound 20], the IC50 is reported as under 20 µM. Compound `CCCCN(C)C(=O)c1oc2ccc(S(=O)(=O)N3CCC(C)CC3)cc2c1C` [compound 325] has an IC50 of under 5 µM. Compound `CCOC(=O)N1CCN(C(=O)c2cc3cc(S(=O)(=O)N4CCCCCC4)ccc3o2)CC1` [compound 410] has an IC50 of 5 to 20 µM. With `CCCCN(C)C(=O)c1oc2ccc(S(=O)(=O)N(CC)CC)cc2c1C` [compound 95] the IC50 was 5 to 20 µM. `Cc1c(C(=O)N2CCOCC2)oc2ccc(S(=O)(=O)N3CCC(C)CC3)cc12` [compound 359] was tested, and the IC50 was 5 to 20 µM. For `Cc1c(C(=O)NC2CC2)oc2ccc(S(=O)(=O)N3CCC(C)CC3)cc12` [compound 395], the IC50 was 5 to 20 µM. For `O=C(NC1CCCC1)c1cc2cc(S(=O)(=O)N3CCCCCC3)ccc2o1` [compound 304], the IC50 was under 5 µM.
